Test results as given in the supplement of paper PMC11061612.

Legend:
Assay in all cases: combination Emax (second highest fraction inhibited in the dose matrix, 72 h); higher = more inhibition; extreme values may be limits of the assay
[1] = test system: TE-15 (Esophageal Squamous Cell Carcinoma)
In short: (§1)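 After 24 hours at 37°C and 5% CO2 in 1536-well plates, cells in DMEM/F12 or RPMI plus 10% FBS received two-drug dose matrices for 72 hours. Viability came from CellTiter-Glo 2.0 luminescence and was scaled as inhibition, anchored at 0 by vehicle wells and at 1 by blank wells. Combination Emax is taken as the second-highest inhibition in the matrix, and Bliss excess as the observed combination effect less EA + EB − EA·EB, with EA and EB the single-agent effects.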

[2] = test system: MDA-MB-361 (Breast Carcinoma)
In short: as §1

[3] = test system: Calu-3 (Lung Adenocarcinoma)
In short: as §1

[4] = test system: CCRF-CEM (T-Lymphoblastic Leukemia)
In short: as §1

NB10 (Neuroblastoma) = test system: NB10 (Neuroblastoma)
In short: as §1

[5] = test system: HCC-78 (Lung Adenocarcinoma)
In short: as §1

[6] = test system: EC-GI-10 (Esophageal Squamous Cell Carcinoma)
In short: as §1

[7] = test system: KP-1N (Pancreatic Carcinoma)
In short: as §1

[8] = test system: Hs-578-T (Breast Carcinoma)
In short: as §1

[9] = test system: LS-180 (Colorectal Carcinoma)
In short: as §1

[10] = test system: DoTc2-4510 (Cervical Carcinoma)
In short: as §1

[11] = test system: MFE-296 (Endometrial Carcinoma)
In short: as §1

Row | Structure (SMILES) | combination Emax [1] | combination Emax [2] | combination Emax [3] | combination Emax [4] | combination Emax (NB10 (Neuroblastoma)) | combination Emax [5] | combination Emax [6] | combination Emax [7] | combination Emax [8] | combination Emax [9] | combination Emax [10] | combination Emax [11]
1 | CC1(C)CCC(CN2CCN(c3ccc(C(=O)NS(=O)(=O)c4ccc(NCC5CCOCC5)c([N+](=O)[O-])c4)c(Oc4cnc5[nH]ccc5c4)c3)CC2)=C(c2ccc(Cl)cc2)C1 [Venetoclax] + CN(C)CCCOc1ccc(-c2ccc3ncc4c(c3c2)n(C2CCOCC2)c(=O)n4C)cn1 [AZD0156] (first compound max 1 µM, 7x7, partner max 1 µM) | 0.451 | 0.261 | 0.121 | 0.931 | 0.538 | 0.181 | 0.221 | 0.138 | 0.793 | 0.166 | 0.268 | 0.144
2 | CCc1c2c(nc3ccc(O)cc13)-c1cc3c(c(=O)n1C2)COC(=O)[C@]3(O)CC [SN-38] + O=C(c1cc(Cc2n[nH]c(=O)c3ccccc23)ccc1F)N1CCN(C(=O)C2CC2)CC1 [Olaparib] (first compound max 0.3 µM, 7x7, partner max 10 µM) | 0.811 |  | 0.398 | 1 | 0.866 | 0.898 |  | 0.645 | 0.709 | 0.748 | 0.988 | 0.595
3 | NC1(C(=O)N[C@@H](CCO)c2ccc(Cl)cc2)CCN(c2ncnc3[nH]ccc23)CC1 [Capivasertib] + C[C@@H]1COCCN1C2=NC(=NC(=C2)C3(CC3)[S@](=N)(=O)C)C4=C5C=CNC5=NC=C4 [AZD6738] (first compound max 10 µM, 7x7, partner max 10 µM) | 0.879 | 0.78 | 0.512 | 0.983 | 0.811 | 0.721 | 0.7 | 0.323 | 0.823 | 0.825 | 0.45 | 0.641
4 | CN(CCO)CC[C@H](CSc1ccccc1)Nc1ccc(S(=O)(=O)NC(=O)c2ccc(N3CCC([C@@H](O)c4ccccc4-c4ccc(Cl)cc4)CC3)cc2)cc1S(=O)(=O)C(F)(F)F [AZD4320] + CN(C)CCCOc1ccc(-c2ccc3ncc4c(c3c2)n(C2CCOCC2)c(=O)n4C)cn1 [AZD0156] (first compound max 1 µM, 7x7, partner max 1 µM) | 0.0786 | 0.205 | 0.117 | 1 | 0.215 | 0.147 | 0.193 | 0.194 | 0.531 | 0.159 | 0.6 | 0.0842
5 | NC1(C(=O)N[C@@H](CCO)c2ccc(Cl)cc2)CCN(c2ncnc3[nH]ccc23)CC1 [Capivasertib] + CC(C)n1c(=O)n(C)c2cnc3cc(F)c(-c4ccc(OCCCN5CCCCC5)nc4)cc3c21 [AZD1390] (first compound max 10 µM, 7x7, partner max 0.3 µM) | 0.387 | 0.44 | 0.288 | 0.457 | 0.221 | 0.259 | 0.574 | 0.254 | 0.682 | 0.33 | 0.234 | 0.488
6 | CC(=O)c1c(C)c2cnc(Nc3ccc(N4CCNCC4)cn3)nc2n(C2CCCC2)c1=O [Palbociclib] + CN(CC[C@H](CSC1=CC=CC=C1)NC2=C(C=C(C=C2)S(=O)(=O)NC(=O)C3=CC=C(C=C3)N4CCC(CC4)[C@H](C5=CC=CC=C5C6=CC=C(C=C6)Cl)O)S(=O)(=O)C(F)(F)F)CCO [AZD4320] (first compound max 10 µM, 7x7, partner max 1 µM) |  | 0.185 |  |  |  |  | 0.493 | 0.27 |  |  |  | 0.293
7 | NC1(C(=O)N[C@@H](CCO)c2ccc(Cl)cc2)CCN(c2ncnc3[nH]ccc23)CC1 [Capivasertib] + CCN(CCO)CCCOc1ccc2c(Nc3cc(CC(=O)Nc4cccc(F)c4)[nH]n3)ncnc2c1 [AZD2811] (first compound max 10 µM, 7x7, partner max 1 µM) | 0.449 | 0.718 | 0.358 | 1 | 0.452 | 0.349 | 0.754 | 0.288 | 0.732 | 0.312 | 0.279 | 0.549
8 | COc1nnc2ccc(N3CCC(c4ccc(OCCN5CCN(C)C(=O)[C@H]5C)cc4)CC3)nn12 [AZD5153] + CN(CC[C@H](CSC1=CC=CC=C1)NC2=C(C=C(C=C2)S(=O)(=O)NC(=O)C3=CC=C(C=C3)N4CCC(CC4)[C@H](C5=CC=CC=C5C6=CC=C(C=C6)Cl)O)S(=O)(=O)C(F)(F)F)CCO [AZD4320] (first compound max 1 µM, 7x7, partner max 1 µM) |  | 0.814 |  |  |  |  | 0.275 | 0.53 |  |  |  | 0.31
9 | C[C@@H](c1ccc2nccn2c1)n1nnc2ncc(-c3cnn(C)c3)nc21 [Savolitinib] + CN(CC[C@H](CSC1=CC=CC=C1)NC2=C(C=C(C=C2)S(=O)(=O)NC(=O)C3=CC=C(C=C3)N4CCC(CC4)[C@H](C5=CC=CC=C5C6=CC=C(C=C6)Cl)O)S(=O)(=O)C(F)(F)F)CCO [AZD4320] (first compound max 1 µM, 7x7, partner max 1 µM) |  | 0.114 |  |  |  |  | 0.27 | 0.175 |  |  |  | 0.2
10 | Cc1c2c(nn1C)CSCc1cc(n(C)n1)CSc1cc(c3ccccc3c1)OCCCc1c(C(=O)O)n(C)c3c-2c(Cl)ccc13 [AZD5991] + C[C@@H](Nc1cc(F)cc(F)c1)c1cc(C(=O)N(C)C)cc2c(=O)cc(N3CCOCC3)oc12 [AZD8186] (first compound max 1 µM, 7x7, partner max 3 µM) | 0.223 | 0.806 | 0.175 | 0.27 | 0.179 | 0.413 | 0.559 | 0.274 | 0.738 |  | 0.384 | 0.265
